Measured values: patent US20100221502A1, “Anthrapyridone Compound and Salt Thereof, Magenta Ink Composition Containing the Anthrapyridone Compound, and Colored Article” (priority 2005, published 2010)

What was measured:
Format in all cases: physicochemical
[1] = Evaluation of hue on glossy paper (L*, a*, b*, C* of inkjet recorded image); set-up: key to Lightness L*: CIELAB L* lightness value; key to Chromaticity a*: CIELAB a* chromaticity value; key to Chromaticity b*: CIELAB b* chromaticity value; conditions: for Chroma C*: C*=((a*)^2+(b*)^2)^1/2; for Chromaticity a* / Chromaticity b* / Lightness L*: ink with 6.0 parts compound
Description: The compound (Compound Example No. 1) obtained in the above Example 1 was used to prepare a solution of the composition shown in the following Table 2, which was filtrated with a 0.45 μm membrane filter for removing insoluble matter to obtain each water-based ink composition for inkjet recording. And ion-exchanged water was used as water. In addition, the pH of the ink composition was adjusted to pH=8 to 10 with a 25% caustic soda aqueous solution, and water was further added so that the whole weight was 100 parts. Example 5 is the test using the compound obtained in Example 1.
(§1) Using an ink jet printer (manufactured by Canon Inc., trade name: Pixus 860i), inkjet recording was performed on glossy paper (manufactured by Canon Inc., trade name: Professional Photo Paper PR-101) having an ink image-receiving layer containing porous white inorganic substance and photo paper (glossy) manufactured by SEIKO-EPSON CORPORATION. In inkjet recording, an image pattern was made to obtain gradations of several stages in printing density and a print was made.
For the hue and vividness of recorded image, printed recording paper was measured using a Color Calibration Systems (trade name: GRETAG SPM50, manufactured by GretagMacbeth AG) to calculate values of L*, a* and b*, and chroma (C*) showing vividness was calculated from chromaticity (a*, b*) by C*=((a*)^2+(b*)^2)^1/2. The hue was evaluated by comparing with a sample of standard magenta in Japan Color manufactured by JPMA (Industry Association: Japan Printing Machinery Association).
In this connection, paper used for standard magenta in Japan Color was Japan Color Standard Paper.

[2] = Xenon light fastness test of recorded image; conditions: any of glossy papers of CANON INC. and SEIKO-EPSON CORPORATION
Protocol: as §1
Using a xenon weatherometer Ci4000 (manufactured by ATLAS Electric Devices Co.), pieces of printed testing paper of glossy paper manufactured by Canon, Inc. and glossy paper manufactured by SEIKO-EPSON CORPORATION, on which an air layer was provided and a glass plate having a thickness of 2 mm was set up, were irradiated for 50 hours at an illuminance of 0.36 W/m^2 under the circumstances of a humidity of 60% RH and a temperature of 24° C. Color difference (ΔE) before and after the test was measured and the evaluation was performed on 3 levels.

[3] = Ozone gas fastness test of recorded image; conditions: any of glossy papers of CANON INC. and SEIKO-EPSON CORPORATION
Protocol: Using an ink jet printer (manufactured by Canon Inc., trade name: Pixus 860i), inkjet recording was performed on glossy paper (manufactured by Canon Inc., trade name: Professional Photo Paper PR-101) having an ink image-receiving layer containing porous white inorganic substance and photo paper (glossy) manufactured by SEIKO-EPSON CORPORATION. In inkjet recording, an image pattern was made to obtain gradations of several stages in printing density and a print was made. Using an ozone weatherometer (manufactured by Suga Test Instruments Co., Ltd.), pieces of printed testing paper of glossy paper manufactured by Canon, Inc. and glossy paper manufactured by SEIKO-EPSON CORPORATION were left for 3 hours under the circumstances of an ozone concentration of 12 ppm, a humidity of 60% RH and a temperature of 24° C. Color difference (ΔE) before and after the test was measured and evaluation was performed on 3 levels. [formula] [formula] [formula]

[4] = Moisture fastness test of recorded image; set-up: key: ∘: Bleed is not observed.; Δ: Bleed is observed on small degree.; ×: Bleed is observed on large degree; conditions: 168 hours, 30° C., 85% RH, bleed by visual observation
Protocol: as §1
Using a thermo-hygrostat (manufactured by OHKEN, Co., LTD), pieces of printed testing paper of glossy paper manufactured by Canon, Inc. and glossy paper manufactured by SEIKO-EPSON CORPORATION were left for 168 hours at a temperature of 30° C. and a humidity of 85% RH. Bleed property before and after the test was determined by visual observation and evaluated on 3 levels.
∘: Bleed is not observed.
Δ: Bleed is observed on small degree.
×: Bleed is observed on large degree.

[5] = Glossy paper manufactured by Canon Inc.
[6] = Glossy paper manufactured by SEIKO-EPSON CORPORATION
[7] = Glossy paper manufactured by CANON INC.

Row | SMILES | Chroma C* [1, 5] | Chromaticity a* [1, 5] | Chromaticity b* [1, 5] | Lightness L* [1, 5] | Chroma C* [1, 6] | Chromaticity a* [1, 6] | Chromaticity b* [1, 6] | Lightness L* [1, 6] | Light fastness (in words) [2] | Ozone gas fastness (in words) [3] | Moisture fastness [4, 7] | Moisture fastness [4, 6]
1 | Cn1c(=O)cc2c3c(c(Nc4cc(Nc5nc(O)nc(Nc6cc(S(=O)(=O)O)ccc6S(=O)(=O)O)n5)ccc4S(=O)(=O)O)ccc31)C(=O)c1ccccc1-2 [Comparative Example 1, reference compound] | 81.3 | 81.0 | −6.7 | 49.8 | 80.4 | 79.9 | −9.5 | 49.5 | has a problem in light fastness | a drawback in ozone gas fastness | ∘ | ∘
2 | O=C(c1cccc(S(=O)(=O)O)c1)c1c2c3c(c(Nc4cc(Nc5nc(O)nc(Nc6ccccc6S(=O)(=O)O)n5)c(S(=O)(=O)O)cc4S(=O)(=O)O)cc(Oc4ccc(-c5ccc(S(=O)(=O)O)cc5)cc4S(=O)(=O)O)c3[nH]c1=O)C(=O)c1ccccc1-2 [Example 5 (No. 1)] | 88.2 | 88.2 | −2.9 | 57.8 | 82.3 | 82.3 | −1.7 | 56.1 | – | – | ∘ | ∘
3 | O=C(O)c1ccccc1Nc1nc(O)nc(Nc2cc(Nc3cc(Oc4ccc(-c5ccc(S(=O)(=O)O)cc5)cc4S(=O)(=O)O)c4[nH]c(=O)c(C(=O)c5cccc(S(=O)(=O)O)c5)c5c4c3C(=O)c3ccccc3-5)c(S(=O)(=O)O)cc2S(=O)(=O)O)n1 [Example 6 (No. 8)] | 82.1 | 82.1 | 0.5 | 55.4 | 80.5 | 80.6 | −2.2 | 56.1 | – | – | ∘ | ∘
4 | O=C(O)c1cc(Nc2nc(O)nc(Nc3cc(Nc4cc(Oc5ccc(-c6ccc(S(=O)(=O)O)cc6)cc5S(=O)(=O)O)c5[nH]c(=O)c(C(=O)c6cccc(S(=O)(=O)O)c6)c6c5c4C(=O)c4ccccc4-6)c(S(=O)(=O)O)cc3S(=O)(=O)O)n2)cc(C(=O)O)c1 [Example 7 (No. 11)] | 78.6 | 78.7 | 1.0 | 54.8 | 77.6 | 77.4 | −2.6 | 57.2 | – | – | ∘ | ∘
